Laboratory results: the Kinase Knowledgebase extract (Sharma et al. 2016)
Where “and” joins values, the source holds several entries; their conditions need not be identical. Equal values may be shown once.

Tests used:
PIK3CB = PIK3CB (UniProt P42338); assay: Inhibition of PIK3CB Kinase Assay
PIK3CG (human) = PIK3CG (human) (UniProt P48736); assay: Inhibition of PIK3CG Kinase Assay
Sequence of PIK3CG (human) (P48736 whole entry, looked up): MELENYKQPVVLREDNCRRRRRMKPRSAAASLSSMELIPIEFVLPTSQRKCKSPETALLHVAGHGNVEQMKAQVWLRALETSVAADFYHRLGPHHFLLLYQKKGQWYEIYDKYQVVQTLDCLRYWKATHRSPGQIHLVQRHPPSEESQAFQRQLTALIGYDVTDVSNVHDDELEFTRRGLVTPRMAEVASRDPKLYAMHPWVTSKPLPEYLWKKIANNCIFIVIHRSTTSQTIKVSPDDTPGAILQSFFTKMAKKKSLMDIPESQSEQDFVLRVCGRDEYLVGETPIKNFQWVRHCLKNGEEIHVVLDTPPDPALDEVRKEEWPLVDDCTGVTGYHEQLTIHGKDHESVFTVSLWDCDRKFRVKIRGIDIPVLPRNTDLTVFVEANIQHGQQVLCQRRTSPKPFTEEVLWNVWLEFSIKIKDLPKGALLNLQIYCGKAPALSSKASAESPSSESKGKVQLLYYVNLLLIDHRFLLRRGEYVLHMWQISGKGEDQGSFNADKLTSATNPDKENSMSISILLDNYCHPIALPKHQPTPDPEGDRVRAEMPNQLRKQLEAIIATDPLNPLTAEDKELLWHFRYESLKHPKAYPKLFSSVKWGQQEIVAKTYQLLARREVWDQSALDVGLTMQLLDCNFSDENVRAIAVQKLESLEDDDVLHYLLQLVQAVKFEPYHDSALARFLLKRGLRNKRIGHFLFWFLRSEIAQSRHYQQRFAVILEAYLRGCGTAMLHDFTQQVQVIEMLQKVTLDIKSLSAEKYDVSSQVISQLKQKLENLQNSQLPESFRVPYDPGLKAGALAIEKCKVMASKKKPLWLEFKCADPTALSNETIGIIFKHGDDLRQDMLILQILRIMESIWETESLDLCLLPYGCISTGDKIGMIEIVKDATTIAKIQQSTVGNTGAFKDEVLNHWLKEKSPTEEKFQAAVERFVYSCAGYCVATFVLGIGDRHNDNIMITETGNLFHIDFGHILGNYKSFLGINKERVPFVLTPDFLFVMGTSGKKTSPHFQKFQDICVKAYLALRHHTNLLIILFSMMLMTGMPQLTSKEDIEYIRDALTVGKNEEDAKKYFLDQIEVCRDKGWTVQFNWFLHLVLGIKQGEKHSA

Sequence of PIK3CB (P42338 whole entry, looked up): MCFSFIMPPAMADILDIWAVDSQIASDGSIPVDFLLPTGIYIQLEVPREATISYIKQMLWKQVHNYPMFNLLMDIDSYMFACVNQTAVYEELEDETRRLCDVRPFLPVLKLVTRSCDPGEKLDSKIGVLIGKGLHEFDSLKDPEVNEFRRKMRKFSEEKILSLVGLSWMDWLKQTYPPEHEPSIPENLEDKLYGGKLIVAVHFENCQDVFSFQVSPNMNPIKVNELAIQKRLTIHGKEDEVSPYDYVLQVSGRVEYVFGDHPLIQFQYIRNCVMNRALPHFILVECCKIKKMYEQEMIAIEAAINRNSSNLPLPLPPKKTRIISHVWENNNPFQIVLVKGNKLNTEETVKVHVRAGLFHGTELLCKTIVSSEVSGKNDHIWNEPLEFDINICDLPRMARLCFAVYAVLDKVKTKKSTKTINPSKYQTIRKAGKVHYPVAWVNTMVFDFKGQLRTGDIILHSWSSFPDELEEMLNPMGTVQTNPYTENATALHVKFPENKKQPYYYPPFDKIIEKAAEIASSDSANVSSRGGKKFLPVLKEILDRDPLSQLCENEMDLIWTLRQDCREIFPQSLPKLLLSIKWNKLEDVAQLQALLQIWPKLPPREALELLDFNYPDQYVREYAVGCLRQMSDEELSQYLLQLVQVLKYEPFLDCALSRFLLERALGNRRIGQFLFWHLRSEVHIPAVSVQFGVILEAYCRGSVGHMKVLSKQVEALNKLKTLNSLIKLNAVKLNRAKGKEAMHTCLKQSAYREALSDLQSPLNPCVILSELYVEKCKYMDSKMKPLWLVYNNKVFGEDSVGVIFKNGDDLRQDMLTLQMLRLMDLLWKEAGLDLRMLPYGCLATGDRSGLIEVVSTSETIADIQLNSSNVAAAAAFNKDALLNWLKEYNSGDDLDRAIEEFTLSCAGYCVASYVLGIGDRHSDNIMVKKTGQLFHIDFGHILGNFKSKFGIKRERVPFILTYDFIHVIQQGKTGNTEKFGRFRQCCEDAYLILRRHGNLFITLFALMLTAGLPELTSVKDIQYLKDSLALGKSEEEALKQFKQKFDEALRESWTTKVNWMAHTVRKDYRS

## COC(=O)CCCOc1ccc2c(c1OC)N=C(/C=C(\O)c1cccnc1)N1CCN=C21
PIK3CB
  IC50: 500 to 2000 nM

## O=C(NC1=Nc2cc(OCCn3cccc3)ccc2C2=NCCN12)c1cccnc1
PIK3CG (human)
  IC50: 100 to 500 nM
PIK3CB
  IC50: 100 to 500 nM

## O=C(NC1=Nc2ccccc2C2=NCCN12)c1cccnc1
PIK3CG (human)
  IC50: ≤ 100 nM
PIK3CB
  IC50: 100 to 500 nM

## COc1c(OCCCC(=O)O)ccc2c1N=C(/C=C(\O)c1cccnc1)N1CCN=C21
PIK3CG (human)
  IC50: ≤ 100 nM
PIK3CB
  IC50: 100 to 500 nM

## COc1c(O)ccc2c1N=C(/C=C(\O)c1cccnc1)N1CCN=C21
PIK3CB
  IC50: 500 to 2000 nM

## COc1c(OCCCC(=O)N2CCOCC2)ccc2c1N=C(/C=C(\O)c1cccnc1)N1CCN=C21
PIK3CG (human)
  IC50: ≤ 100 nM
PIK3CB
  IC50: 100 to 500 nM

## O=C(NC1=Nc2cc(O)ccc2C2=NCCN12)c1cccnc1
PIK3CG (human)
  IC50: 100 to 500 nM
PIK3CB
  IC50: 500 to 2000 nM

## Cc1cc(Br)c2c(c1)C1=NCCN1C(/C=C(\O)c1ccc3[nH]cnc3c1)=N2
PIK3CG (human)
  IC50: 100 to 500 nM

## Cc1ncccc1C(=O)NC1=Nc2ccccc2C2=NCCN12
PIK3CG (human)
  IC50: ≤ 100 nM

## Cc1ccc2c(c1)N=C(/C=C(\O)c1cccnc1)N1CCN=C21
PIK3CG (human)
  IC50: 100 to 500 nM

## CC(=O)Nc1ccc(/C(O)=C/C2=Nc3cc(CN4CCOCC4)ccc3C3=NCCN23)cn1
PIK3CG (human)
  IC50: 100 to 500 nM

## O=C(NC1=Nc2ccccc2C2=NCCN12)c1ccco1
PIK3CG (human)
  IC50: 500 to 2000 nM

## COc1cc2c(cc1OC)C1=NCCN1C(NC(=O)c1ccc(NC(C)=O)nc1)=N2
PIK3CG (human)
  IC50: 100 to 500 nM

## O/C(=C\C1=Nc2cc(N3CCOCC3)ccc2C2=NCCN12)c1cccnc1
PIK3CG (human)
  IC50: 100 to 500 nM

## COc1c(OCC(=O)N2CCOCC2)ccc2c1N=C(/C=C(\O)c1cccnc1)N1CCN=C21
PIK3CG (human)
  IC50: ≤ 100 nM

## O/C(=C\C1=Nc2ccccc2C2=NCCN12)c1cccnc1
PIK3CG (human)
  IC50: 100 to 500 nM

## CC(=O)Nc1ccc(C(=O)NC2=Nc3cc(N4CCOCC4)ccc3C3=NCCN23)cn1
PIK3CG (human)
  IC50: ≤ 100 nM
PIK3CB
  IC50: 500 to 2000 nM and 100 to 500 nM

## O=C(NC1=Nc2cc(N3CCCCC3)ccc2C2=NCCN12)c1cccnc1
PIK3CG (human)
  IC50: 100 to 500 nM

## COc1ccc2c(c1)N=C(NC(=O)c1ccc(N)nc1)N1CCN=C21
PIK3CG (human)
  IC50: ≤ 100 nM

## O=C(NC1=Nc2ccc(F)cc2C2=NCCN12)c1cccs1
PIK3CG (human)
  IC50: 500 to 2000 nM

## Cc1cccc2c1N=C(NC(=O)c1cccnc1)N1CCN=C21
PIK3CG (human)
  IC50: 100 to 500 nM

## Cc1ccc2c(c1)N=C(NC(=O)c1cccnc1)N1CCN=C21
PIK3CG (human)
  IC50: ≤ 100 nM

## Cc1cc(C(=O)NC2=Nc3ccccc3C3=NCCN23)cc(C)c1[N+](=O)[O-]
PIK3CG (human)
  IC50: > 2000 nM

## O=C(NC1=Nc2ccccc2C2=NCCN12)c1ccc(-n2ccnc2)cc1
PIK3CG (human)
  IC50: > 2000 nM

## Cc1ccc(C(=O)NC2=Nc3ccccc3C3=NCCN23)c(Cl)n1
PIK3CG (human)
  IC50: 500 to 2000 nM

## CS(=O)(=O)c1ccc(C(=O)NC2=Nc3ccccc3C3=NCCN23)cc1
PIK3CG (human)
  IC50: > 2000 nM

## COc1ccc2c(c1)N=C(NC(=O)c1ccc3[nH]cnc3c1)N1CCN=C21
PIK3CG (human)
  IC50: ≤ 100 nM

## O/C(=C\C1=Nc2cc(N3CCOCC3)ccc2C2=NCCN12)c1cncc(O)c1
PIK3CG (human)
  IC50: ≤ 100 nM

## COc1cc2c(cc1OC)C1=NCCN1C(NC(=O)c1cncc(O)c1)=N2
PIK3CG (human)
  IC50: ≤ 100 nM

## COc1cc2c(cc1OC)C1=NCCN1C(/C=C(\O)c1cccnc1)=N2
PIK3CG (human)
  IC50: ≤ 100 nM
PIK3CB
  IC50: 500 to 2000 nM

## O/C(=C\C1=Nc2c(Br)cccc2C2=NCCN12)c1cccnc1
PIK3CG (human)
  IC50: 100 to 500 nM

## COc1cccc2c1N=C(NC(=O)c1cccnc1)N1CCN=C21
PIK3CG (human)
  IC50: ≤ 100 nM

## O=C(NC1=Nc2ccccc2C2=NCCN12)c1ccc(-n2cccc2)cc1
PIK3CG (human)
  IC50: > 2000 nM
